Source: patent US8648066B2 (Exelixis, Inc., priority 2009, dated 2014)

The compounds below were run against mTOR/GbL/Raptor (mTORC1) (Homo sapiens, UniProt P42345) (assay: mTOR/GbL/Raptor (mTORC1) ELISA assay). Details: phosphorylation of 4E-BP1; 0.2 nM mTORC1, 10 μM ATP; read-out: IC50 in this assay (mTORC1 ELISA).
Assay type: biochemical
How it was run: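 ELISA read-out: phospho-4E-BP1 captured on Ni-chelate plates and detected with anti-phospho antibody plus HRP-anti-IgG luminescence. The kinase step ran 120 min at ambient temperature with 0.2 nM human mTORC1, 10 µM ATP, 50 nM His-4E-BP1, 10 mM MnCl2, pH 7.2 HEPES.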

Row | Compound | IC50 [nM]
1 | COc1ncc(-c2ccc3c(c2)CN(c2ncnc4c2CC(C)(C)CC4)CCO3)cc1NS(C)(=O)=O [Example 628, N-{5-[4-(6,6-dimethyl-5,6,7,8-tetrahydroquinazolin-4-yl)-2,3,4,5-tetrahydro-1,4-benzoxazepin-7-yl]-2-(methyloxy)pyridin-3-yl}methanesulfonamide] | 10 to 50
2 | Cc1nc2ncc(-c3ccc4c(c3)CN(c3nc(CNC5CCC5)nc5c3CC(C)(C)CC5)CCO4)cc2[nH]1 [Example 597, N-({6,6-dimethyl-4-[7-(2-methyl-1H-imidazo[4,5-b]pyridin-6-yl)-2,3-dihydro-1,4-benzoxazepin-4(5H)-yl]-5,6,7,8-tetrahydroquinazolin-2-yl}methyl)cyclobutanamine] | ≤ 10
3 | Cc1nc2ccc(-c3ccc4c(c3)CN(c3nc(CNC5CCC5)nc5c3CC(C)(C)CC5)CCO4)cc2[nH]1 [Example 587, N-({6,6-dimethyl-4-[7-(2-methyl-1H-benzimidazol-6-yl)-2,3-dihydro-1,4-benzoxazepin-4(5H)-yl]-5,6,7,8-tetrahydroquinazolin-2-yl}methyl)cyclobutanamine] | 10 to 50
4 | Cc1nc2ncc(-c3ccc4c(c3)CN(c3nc(CN5CC[C@@H](F)C5)nc5c3CC(C)(C)CC5)CCO4)cc2[nH]1 [Example 462] | 10 to 50
5 | Cc1nc2ccc(-c3ccc4c(c3)CN(c3ncnc(C)c3Cc3ccc(Cl)cc3)CCO4)cc2[nH]1 [Example 80, 4-{5-[(4-chlorophenyl)methyl]-6-methylpyrimidin-4-yl}-7-(2-methyl-1H-benzimidazol-6-yl)-2,3,4,5-tetrahydro-1,4-benzoxazepine] | ≤ 10
6 | Cc1nc2ncc(-c3ccc4c(c3)CN(c3ncnc5c3CCC(C)C5)CCO4)cc2[nH]1 (stereo not drawn) [Example 556, 7-(2-methyl-1H-imidazo[4,5-b]pyridin-6-yl)-4-(7-methyl-5,6,7,8-tetrahydroquinazolin-4-yl)-2,3,4,5-tetrahydro-1,4-benzoxazepine] | 10 to 50
7 | Cc1nc2ncc(-c3ccc4c(c3)CN(c3nc(CNCC(F)(F)F)nc5c3CC(C)(C)CC5)CCO4)cc2[nH]1 [Example 591, N-({6,6-dimethyl-4-[7-(2-methyl-1H-imidazo[4,5-b]pyridin-6-yl)-2,3-dihydro-1,4-benzoxazepin-4(5H)-yl]-5,6,7,8-tetrahydroquinazolin-2-yl}methyl)-2,2,2-trifluoroethanamine] | 10 to 50

Continued, values first:

Row | IC50 [nM] | Compound
8 | ≤ 10 | Cc1nc2cc(-c3ccc4c(c3)CN(c3nc(C(C)N)nc5c3CC(C)(C)CC5)CCO4)ccc2[nH]1 (stereo not drawn) [Example 668, 1-{6,6-dimethyl-4-[7-(2-methyl-1H-benzimidazol-5-yl)-2,3-dihydro-1,4-benzoxazepin-4(5H)-yl]-5,6,7,8-tetrahydroquinazolin-2-yl}ethanamine]
9 | ≤ 10 | CCNc1nc2ncc(-c3ccc4c(c3)CN(c3ncnc5c3CC(C)(C)CC5)CCO4)cc2[nH]1 [Example 264, 6-[4-(6,6-dimethyl-5,6,7,8-tetrahydroquinbazolin-4-yl)-2,3,4,5-tetrahydro-1,4-benzoxazepin-7-yl]-N-ethyl-1H-imidazo[4,5-b]pyridin-2-amine]
10 | 250 to 1000 | COc1ccc2c(N3CCOc4ccc(-c5cnc6[nH]ccc6c5)cc4C3)nc(C)nc2c1 [Example 267, 4-[2-methyl-7-(methyloxy)quinazolin-4-yl]-7-(1H-pyrrolo[2,3-b]pyridin-5-yl)-2,3,4,5-tetrahydro-1,4-benzoxazepine]
11 | ≤ 10 | Cc1nc2ccc(-c3ccc4c(c3)CN(c3nc(CNCCF)nc5c3CC(C)(C)CC5)CCO4)cc2[nH]1 [Example 586, N-({6,6-dimethyl-4-[7-(2-methyl-1H-benzimidazol-6-yl)-2,3-dihydro-1,4-benzoxazepin-4(5H)-yl]-5,6,7,8-tetrahydroquinazolin-2-yl}methyl)-2-fluoroethanamine]
12 | ≤ 10 | CC1(C)CCc2ncnc(N3CCOc4ccc(-c5cnc(N)c(S(=O)(=O)N[C@@H]6CCNC6)c5)cc4C3)c2C1 [Example 387, 2-amino-5-[4-(6,6-dimethyl-5,6,7,8-tetrahydroquinazolin-4-yl)-2,3,4,5-tetrahydro-1,4-benzoxazepin-7-yl]-N-[(3R)-pyrrolidin-3-yl]pyridine-3-sulfonamide]
